Each structure is given as a SMILES string.

From the supplement of paper PMC11061612 come the findings set out here.

The test system of test [1] is AGS (Gastric Carcinoma). Description: Bliss excess, mean over the matrix (fraction); higher = more synergy. The essentials:
(§1)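 After 24 hours at 37°C and 5% CO2 in 1536-well plates, cells in DMEM/F12 or RPMI plus 10% FBS received two-drug dose matrices for 72 hours. Viability came from CellTiter-Glo 2.0 luminescence and was scaled as inhibition, anchored at 0 by vehicle wells and at 1 by blank wells. Combination Emax is taken as the second-highest inhibition in the matrix, and Bliss excess as the observed combination effect less EA + EB − EA·EB, with EA and EB the single-agent effects.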

Test [2] relates to B-CPAP (Thyroid Gland Carcinoma). The description is as above. In outline:
as §1

Test [3] has as its system CAL-148 (Breast Carcinoma). The description is as above. In outline:
as §1

In test [4] the test system is Calu-3 (Lung Adenocarcinoma). Described as above. In outline: as §1
The subject of test [5] is DoTc2-4510 (Cervical Carcinoma). Described as above. In outline: as §1
Test [6] concerns ES4 (Ewing's Sarcoma). The description is as above. The essentials:
as §1

In test [7] the test system is HCC1806 (Breast Carcinoma). The test is described as above. In outline:
as §1

The test system of test [8] is HT-1376 (Bladder Carcinoma). The description is as above. The essentials: as §1
Test [9] concerns KURAMOCHI (Ovarian Carcinoma). Described as above. In outline: as §1
In test [10] the test system is LNCaP-Clone-FGC (Prostate Carcinoma). The test is described as above. In outline: as §1
Test [11] relates to LU-135 (Small Cell Lung Carcinoma). Described as above. The essentials:
as §1

For test [12], the system named is ME-1 (Acute Myeloid Leukemia). The description is as above. In outline: as §1
Test [13] deals with NCI-H2085 (Non-Small Cell Lung Carcinoma). The test is described as above. The essentials:
as §1

For test [14], the system named is SK-ES-1 (Ewing's Sarcoma). The description is as above. In outline:
as §1

In test [15] the test system is 42-MG-BA (Glioblastoma). As to the kind of experiment: combination Emax (second highest fraction inhibited in the dose matrix, 72 h); higher = more inhibition; extreme values may be limits of the assay. The essentials:
as §1

Test [16] has as its system EC-GI-10 (Esophageal Squamous Cell Carcinoma). The test is described as above. The essentials: as §1
In test [17] the test system is Hs-578-T (Breast Carcinoma). The description is as above. In outline: as §1
The test system of test [18] is KP-1N (Pancreatic Carcinoma). The test is described as above. The essentials:
as §1

In test [19] the test system is T98G (Glioblastoma). The test is described as above. In outline: as §1
The test system of test [20] is TE-15 (Esophageal Squamous Cell Carcinoma). The test is described as above. In outline:
as §1
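For Bliss excess, mean over the matrix in this document: after 72 h of two-drug dosing.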

Turning to `Cc1c2c(nn1C)CSCc1cc(n(C)n1)CSc1cc(c3ccccc3c1)OCCCc1c(C(=O)O)n(C)c3c-2c(Cl)ccc13` [AZD5991] + CN(C)CCCOc1ccc(-c2ccc3ncc4c(c3c2)n(C2CCOCC2)c(=O)n4C)cn1 [AZD0156] (first compound max 1 µM, 7x7, partner max 1 µM), the Bliss excess in [1] was -0.0258; in test [2], 0.0094; in [3], 0.0528; in test [4], 0.0066; in test [5] it was 0.0422; in [6] it was 0.0042. Further, the Bliss excess in test [7] was 0.0346; in test [8] it was 0.0039; in [9] it was -0.0666; in [10], -0.0275; in test [11], -0.0413; in test [12], 0.0237. In addition, the Bliss excess in [13] was -0.0266; in test [14], -0.004. Besides, the “combination Emax” value in test [15] was 0.986; in [16], 0.747; in [17], 0.585; in test [18] it was 0.229; in [19] it was 0.283; in [20], 0.188.

With `COc1nnc2ccc(N3CCC(c4ccc(OCCN5CCN(C)C(=O)[C@H]5C)cc4)CC3)nn12` [AZD5153] + C=CCn1c(=O)c2cnc(Nc3ccc(N4CCN(C)CC4)cc3)nc2n1-c1cccc(C(C)(C)O)n1 [AZD1775] (first compound max 1 µM, partner max 1 µM), the Bliss excess is -0.0294 in test [1]; -0.0803 in test [2]; -0.0117 in test [3]; -0.0678 in test [4]; -0.018 in [5]; -0.0223 in test [6]. Further, the Bliss excess was -0.0704 in test [7]; 0.0053 in test [8]; -0.0373 in test [9]; -0.0733 in test [10]; -0.004 in [11]; -0.0446 in test [12]. For the same molecule, the Bliss excess in test [13] is -0.0223; in test [14], -0.0279. Further, the “combination Emax” value in [15] worked out at 0.688; in test [16] it was 0.865; in [17] it was 0.822; in [18] it was 0.655; in test [19], 0.717; in test [20] it was 0.756.

In the case of `CS(=O)(=O)CCNCc1ccc(-c2ccc3ncnc(Nc4ccc(OCc5cccc(F)c5)c(Cl)c4)c3c2)o1` [Lapatinib] + C[C@@H](Oc1cc(-c2cnn(C3CCNCC3)c2)cnc1N)c1c(Cl)ccc(F)c1Cl [Crizotinib] (first compound max 10 µM, 7x7, partner max 10 µM), the Bliss excess in test [1] is 0.0118; in test [2], -0.0393; in [3], -0.0105; in [4], 0.0052; in test [5], -0.0321; in test [6], -0.0261. Moreover, the Bliss excess in test [7] was -0.0266; in test [8] it was -0.0343; in test [9], -0.0794; in [10] it was -0.0575; in [11] it was 0.0255; in [12], -0.0344. The Bliss excess in [13] was -0.0813; in [14] it was -0.0015. The “combination Emax” value in test [15] amounted to 0.767; in test [16], 0.986; in test [17] it was 0.991; in test [18], 0.809; in [19] it was 0.949; in test [20], 0.906.

For `Cc1c2c(nn1C)CSCc1cc(n(C)n1)CSc1cc(c3ccccc3c1)OCCCc1c(C(=O)O)n(C)c3c-2c(Cl)ccc13` [AZD5991] + CC1(C)CCC(CN2CCN(c3ccc(C(=O)NS(=O)(=O)c4ccc(NCC5CCOCC5)c([N+](=O)[O-])c4)c(Oc4cnc5[nH]ccc5c4)c3)CC2)=C(c2ccc(Cl)cc2)C1 [Venetoclax] (first compound max 1 µM, 7x7, partner max 1 µM), the Bliss excess in [1] was 0.0132; in test [2], -0.0306; in test [3], -0.0177; in test [4] it was 0.0015; in test [5], 0.0024; in [6] it was -0.0286. The Bliss excess in [7] was -0.0299; in test [8], -0.0465; in test [9] it was 0.0511; in test [10], -0.0476; in test [11], 0.0178; in [12] it was 0.0654. In addition, the figures for the Bliss excess in test [13] and in [14] were -0.0042 and 0.167, respectively. Also, the “combination Emax” value came to 0.963 in [15]; 0.448 in [16]; 0.774 in test [17]; 0.119 in [18]; 0.283 in test [19]; 0.173 in [20].
